Assay results taken from patent publication US4366159A (priority 1981, dated 1982).
Where a name gives a salt, the structure may show the parent alone. Read-outs that look alike come from different tables or passages of the source.

Columns and labels:
[1] = anesthetic requirement (MAC) for cyclopropane, tail-clamp technique; format: in vivo, Sprague-Dawley rats
Method: (§1) The effect on anesthetic requirements and PaCO2 of combined doses of nalbuphine hydrochloride and morphine sulfate was evaluated in 18 Sprague-Dawley rats (200-350 gms). Anesthetic requirements for cyclopropane anesthetic of each rat was determined using a tail-clamp technique (Munson et al., The Effect of Acute Hypothyroidism and Hyperthyoidism on Cyclopropane Requirements (MAC) in Rats, Anesthesiology 1968; 29:1094-1098). After induction of anesthesia with cyclopropane, the femoral artery and vein were exposed and catheterized with PE50 tubing. Anesthetic requirement as measured by minimal alveolar concentration (MAC) was determined and thereafter nalbuphine hydrochloride was administered intravenously. Upon completion of control measurements, a bolus dose of 0.04 mg/kg of nalbuphine hydrochloride was followed with a constant infusion of 0.1 mg/kg/min. After 45 minutes of continuous infusion, MAC was redetermined and arterial blood sampling repeated. The rat then received either 2, 4 or 8 mg/kg subcutaneously of morphine sulfate and after 30 minutes MAC and arterial blood gas (ABG) values (PaO2, PaCO2, pH, HCO3) redetermined.
The effect of morphine sulfate alone on anesthetic requirement and respiration was evaluated in a separate group of five Sprague-Dawley rats. After baseline measurements of anesthetic requirement (MAC) and ABG values, 2 mg/kg of morphine sulfate was given subcutaneously and after 30 minutes, repeat measurements of anesthetic requirements and blood gases were carried out.
Statistical evaluation was carried out using analysis of variance comparing the groups of animals at different infusion rates of nalbuphine hydrochloride, and for the animals receiving the combined morphine sulfatenalbuphine hydrochloride doses.

[2] = Method: as §1
The effect of morphine sulfate alone on anesthetic requirement and respiration was evaluated in a separate group of five Sprague-Dawley rats. […]

[3] = from a previous study, cited from earlier work
[4] = mouse antiphenylquinone writhing test; conditions: for % mice blocked: 0:1 (morphine SO4 only)
[5] = human, in vivo
Method: The nalbuphine was administered parenterally as each patient was coming out of the anesthesia. […] The respiratory effect of the nalbuphine was established by measurement of arterial PaCO2 using a blood gas analyzer well known in respiratory therapy. Normal PaCO2 is in the range of 35-42 mmHg. All arterial samples were obtained on an inspired oxygen concentration of 100%.

SMILES	MAC Reduction % (Mean ± SEM) ([1]; morphine SO4 2 mg/kg sc, 30 min)	MAC Reduction % (Mean ± SEM) ([1]; morphine SO4 2 mg/kg sc, 30 min, listed as morphine)	mean PaCO2 compared with comparable MAC reduction dose of nalbuphine ([2]; morphine 2 mg/kg)	MAC Reduction % (Mean ± SEM) ([3]; morphine SO4 2 mg/kg sc)	MAC Reduction % (Mean ± SEM) ([3]; morphine SO4 4 mg/kg sc)	MAC Reduction % (Mean ± SEM) ([3]; morphine SO4 8 mg/kg sc)	% mice blocked ([4]; s.c., 10 min, 0.373 mg/kg)	% mice blocked ([4]; s.c., 10 min, 0.745 mg/kg)	% mice blocked ([4]; s.c., 10 min, 1.49 mg/kg)	% mice blocked ([4]; s.c., 10 min, 2.98 mg/kg)	ED50 at 10 min., Morphine SO4 ([4]; s.c., 10 min, morphine SO4 dose (alone or as component of combination), N = 30 mice/dose, 95% conf. limits printed on following lines)	MAC Reduction % (Mean ± SEM) ([1]; rat, in vivo)	PaCO2 (Mean ± SEM) ([2]; rat, in vivo)	duration of analgesia [5]	emergence from anesthesia [5]	hypoxia and shunt [5]	pH after nalbuphine [5]	respiratory acidosis present before nalbuphine [5]	respiratory depression resulting from the narcotic [5]	ED50 at 10 min., Nalbuphine HCl ([4]; mouse, in vivo, sc)
CN1CC[C@]23c4c5ccc(O)c4O[C@H]2[C@@H](O)C=C[C@H]3[C@H]1C5 [Morphine SO4]	22 ± 0.55%	22%	significantly higher	21.80 ± 1.48%	32.63 ± 0.98%	54.87 ± 1.94%	17%	37%	83%	100%	0.832 mg/kg									
Oc1ccc2c3c1O[C@H]1[C@@H](O)CC[C@@]4(O)[C@@H](C2)N(CC2CCC2)CC[C@]314 [Nalbuphine HCl, (-)-17-(cyclobutylmethyl)-4,5α-epoxymorphinan-3,6α, 14-triol]												21.62 ± 0.69%	48.31 ± 1.07 mmHg	8 to 12 h	smooth, rapid	No patient was hypoxic, nor was there any significant shunt present	7.35±0.6	completely reversed	reversed in all cases	2.17 mg/kg
